# Experimental data published in patent US10131652B2, “Pyrimidinyloxy benzene derivatives as herbicides” (E. I. DU PONT DE NEMOURS AND COMPANY, priority 2014, dated 2018).
# Read-outs that look alike come from different tables or passages of the source.
# How the values were obtained:
# Assay in all cases: Test B pre-/postemergence plant response
# Assay type in all cases: in vivo
# [1] = tested on: large (Lg) crabgrass (Digitaria sanguinalis); conditions: Digitaria sanguinalis, 240 h, read-out: Plant response rating, Crabgrass, Large; for pest or weed control at 125 g/ha: 125 g ai/ha; for pest or weed control at 500 g/ha: 500 g ai/ha; for pest or weed control at 1000 g/ha: 1000 g ai/ha
# Procedure, shortened: (§1)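 Visual injury scores on a 0–100 scale (100 = complete control) relative to untreated plants, taken about 10 days post-treatment in greenhouse. Treatments were a directed preemergence soil spray and a postemergence spray at one- to two-leaf stage, using surfactant-containing solvent formulation.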
# [2] = tested on: morningglory (Ipomoea spp.); conditions: Ipomoea, 240 h, read-out: Plant response rating, Morningglory; for pest or weed control at 125 g/ha: 125 g ai/ha; for pest or weed control at 500 g/ha: 500 g ai/ha; for pest or weed control at 1000 g/ha: 1000 g ai/ha
# Procedure, shortened: as §1
# [3] = tested on: velvetleaf (Abutilon theophrasti); conditions: Abutilon theophrasti, 240 h, read-out: Plant response rating, Velvetleaf; for pest or weed control at 125 g/ha: 125 g ai/ha; for pest or weed control at 500 g/ha: 500 g ai/ha; for pest or weed control at 1000 g/ha: 1000 g ai/ha
# Procedure, shortened: as §1
# [4] = post-emergence, postemergence, 0 to 100 scale, 0 no effect, 100 complete control
# [5] = post-emergence, Postemergence, 0 to 100 scale (0 no effect, 100 complete control)
# [6] = pre-emergence, Preemergence, 0 to 100 scale where 0 is no effect and 100 is complete control
# [7] = pre-emergence, Preemergence, 0 to 100 scale (0 no effect, 100 complete control)
Structure (SMILES),"pest or weed control at 125 g/ha [1, 4] [%]","pest or weed control at 500 g/ha [1, 5] [%]","pest or weed control at 125 g/ha [1, 6] [%]","pest or weed control at 500 g/ha [1, 7] [%]","pest or weed control at 125 g/ha [2, 4] [%]","pest or weed control at 500 g/ha [2, 5] [%]","pest or weed control at 125 g/ha [2, 6] [%]","pest or weed control at 500 g/ha [2, 7] [%]","pest or weed control at 125 g/ha [3, 4] [%]","pest or weed control at 500 g/ha [3, 5] [%]","pest or weed control at 125 g/ha [3, 6] [%]","pest or weed control at 500 g/ha [3, 7] [%]","pest or weed control at 500 g/ha [1, 6] [%]","pest or weed control at 500 g/ha [2, 6] [%]","pest or weed control at 500 g/ha [3, 6] [%]",also measured
"FC(F)(F)c1nccc(-c2ccccc2Oc2ncc(Br)cn2)n1 [Compound 21, 4-[2-[(5-bromo-2-pyrimidinyl)oxy]phenyl]-2-(trifluoromethyl)pyrimidine]",0,30,60,100,20,90,0,0,20,40,0,20,–,–,–,–
"Cc1ccc(Oc2ncc(Cl)cn2)c(-c2ccc(C(F)(F)F)nc2)c1 [Compound 22, 5-chloro-2-[4-methyl-2-[6-(trifluoromethyl)-3-pyridinyl]phenoxy]pyrimidine]",0,10,0,0,0,10,0,0,50,60,0,0,–,–,–,–
"Clc1ccc(-c2c(Cl)cccc2Oc2ncc(Cl)cn2)nc1 [Compound 23, 5-chloro-2-[3-chloro-2-(5-chloro-2-pyridinyl)phenoxy]pyrimidine]",10,50,40,80,20,40,0,0,40,70,10,50,–,–,–,"pest or weed control at 1000 g/ha [1, 5]: 60%; pest or weed control at 1000 g/ha [1, 7]: 100%; pest or weed control at 1000 g/ha [2, 5]: 70%; pest or weed control at 1000 g/ha [2, 7]: 0%; pest or weed control at 1000 g/ha [3, 5]: 70%; pest or weed control at 1000 g/ha [3, 7]: 80%"
"Cc1ccc(Oc2ncc(Cl)cn2)c(-c2ccnc(C(F)(F)F)c2)c1 [Compound 24, 5-chloro-2-[4-methyl-2-[2-(trifluoromethyl)-4-pyridinyl]phenoxy]pyrimidine]",80,90,100,100,50,100,0,0,40,70,0,0,–,–,–,–
"FC(F)(F)c1ccnc(-c2ccccc2Oc2ncc(Cl)cn2)c1 [Compound 25, 5-chloro-2-[2-[4-(trifluoromethyl)-2-pyridinyl]phenoxy]pyrimidine]",10,50,50,–,10,70,0,–,20,80,10,–,100,10,100,–
"FC(F)(F)c1ccc(-c2ccccc2Oc2ncc(Cl)cn2)nc1 [Compound 27, 5-chloro-2-[2-[5-(trifluoromethyl)-2-pyridinyl]phenoxy]pyrimidine]",20,90,80,–,10,50,0,–,70,100,20,–,100,0,60,–
"FC(F)(F)Oc1ccc(-c2ccccc2Oc2ncc(Cl)cn2)cc1 [Compound 42, 5-chloro-2-[[4′-(trifluoromethoxy)[1,1′-biphenyl]-2-yl]oxy]pyrimidine]",30,50,50,–,20,60,0,–,100,100,50,–,90,0,70,–
"FC(F)(F)c1cc(-c2ccccc2Oc2ncc(Cl)cn2)on1 [Compound 63, 5-chloro-2-[2-[3-(trifluoromethyl)-5-isoxazolyl]phenoxy]pyrimidine]",80,90,100,–,100,100,30,–,100,100,70,–,100,60,90,–
